In patent publication US12599666B2, “Photolytic compounds and triplet-triplet annihilation mediated photolysis” (University of Massachusetts, priority 2019, dated 2026):
Where “and” joins values, the source holds several entries; their conditions need not be identical. Identical values can stand only once. Like-named read-outs stand apart in the source and are kept apart here. Marks after values point to notes of the source that are not given here.

What was measured:
[1] = Photolytic molecule experiment: TTAP photolytic reaction in solution under LED, HPLC yield; format: physicochemical
Protocol: Photolytic molecule experiment: The NIR LED (720 nm), far red LED (650 nm), green LED (530 nm), blue LED (476 nm) and deep blue (455 nm) were used for photolytic reactions. […] Then, the solution was excited with a LED (20 mW/cm^2) at 37° C. After the photolytic reaction, the raw product was dried and re-dissolved in CH3CN/H2O=(2/1, v/v) and HPLC was used to analyze the yield of product.

[2] = Photophysical parameters of Sen and PPGs (UV-vis absorption, emission, energy levels); format: physicochemical; parameters: λabs maximum absorption wavelength / λem maximum emission wavelength: unit not given here; details: for λabs maximum absorption wavelength / λem maximum emission wavelength / ξ molar extinction coefficient: in toluene, 10 μM; for T1 triplet excited state: photosensitizers (Sen), from maximum phosphorescence emission
Protocol: Characterization: ^1H NMR spectra were recorded with a Bruker 500 MHz spectrometer. UV-Vis spectra were recorded on an Agilent Cary-5 spectrophotometer. Steady-state fluorescence spectra were measured on a HITACHI F-7000 spectrometer. […] The sample for TEM measurement was prepared by dropping the solution onto a carbon-coated copper grid following negative staining with 2.0% (w/v) phosphotungstic acid. The particle size and size distribution were measured by using dynamic light scattering (DLS) on a Malvern Nano-ZS particle size analyzer, excitation wavelength 532 nm. All samples in the Stern-Volmer quenching plots experiments were deaerated with argon for ca. 15 min before measurement and the gas flow was maintained during the measurements. For the TTA upconversion spectra measurement, the diode pumped solid-state laser (650 nm, continues wave, CW, Hi-Teach company, China) was used as the excitation light source and a modified spectrofluorometer was used to record the upconversion spectra. For the prodrug photolytic experiment, an All LED (Mightex Company) was used as the excitation light source.
From the absorption and emission spectra of Sen and PPGs, the triplet and singlet energy levels of PPG and Sen can be calculated. The maximum emission wavelength of phosphorescence is the triplet excited state energy level (T1) of the Sen. The maximum emission wavelength of fluorescence is the singlet excited state energy level (S1) of the PPGs. Moreover, according to the literature, we know the triplet excited energy levels of PPGs. The detail information is always in […]

[3] = PPGs, from the literature, cited from earlier work
[4] = cited from earlier work
[5] = Photocleavage quantum yield / photolytic quantum efficiency calculation
From the text: We compared photolytic quantum efficiency of the widely used PPG of Cou by using the UCNPs as phototransducer.

[6] = Stern-Volmer photoluminescence quenching of photosensitizers by PPGs-X; format: physicochemical
Protocol: The Stern-Volmer quenching plots experiment (ksv): photoluminescence of photosensitizers (PtTNP, PdTPBP, PtOEP, and Ir(ppy)3) in the presence of different concentrations of PPGs (BDP, perylene, anthracene and coumarin). The mixed solutions were degassed for at least 15 min with Ar in toluene. The ksv constants were calculated with eq 1, where 1o and It stand for photoluminescence intensity of photosensitizer in the absence of PPGs-X and the photoluminescence intensity of photosensitizer in the presence PPGs-X. Q is the concentration of PPGs-X. Biomolecular quenching constants (kq) were calculated by eq2. The Tr is the phosphorescence lifetime of photosensitizer in argon.

[7] = TTA upconversion quantum yield; format: physicochemical
Protocol: The upconversion quantum yields (ΦUC): The upconversion quantum yields were calculated with the eq 3, where ΦUC and Φstd stand for upconversion luminescence quantum yield of sample TTA-UC and fluorescence quantum yield of reference compounds, respectively. Aunk and Astd stand for absorbance of the TTA-UC and reference compound, respectively. Iunk and Istd stand for integrated upconversion luminescence intensity of the TTA-UC and fluorescence intensity of reference compounds, respectively. ηunk and μstd stand for the refractive index of water. The equation is multiplied by a factor of 2 to make the maximum quantum yield of two unified emitters.
The upconversion experiments were deaerated with argon for ca. 15 min before measurement and the argon gas flow was kept during the measurement.

[8] = PdTPBP, far-red LED light (20 mW/cm^2, 650 nm)
[9] = PtTNP, NIR LED light (20 mW/cm^2, 720 nm, 1 h)
[10] = PtOEP, green LED light (20 mW/cm^2, 532 nm)
[11] = One photon: 120 mW/cm^2, λ > 400 nm
[12] = UCNPs as photo transducers, 570 mW cm^−2, λ = 980 nm

Molecule: COc1ccc2cc(C(C)C(=O)OCc3ccc4c5cccc6cccc(c7cccc3c74)c65)ccc2c1 (stereo not drawn) [compound 16]
- photolytic yield [1, 8]: 78.5%
- photolytic yield [1, 9]: 17.4%

Molecule: CCCCNC(=O)OCc1c2ccccc2cc2ccccc12 [compound 4]
- photolytic yield [1, 10]: 51.0%

Molecule: [Pd+2].c1ccc(-c2c3nc(c(-c4ccccc4)c4[n-]c(c(-c5ccccc5)c5nc(c(-c6ccccc6)c6[n-]c2c2ccccc62)-c2ccccc2-5)c2ccccc42)-c2ccccc2-3)cc1 [PdTPBP, meso-tetraphenyltetrabenzoporphine palladium complex]
- λabs maximum absorption wavelength [2]: 630
- λem maximum emission wavelength [2]: 790
- ξ molar extinction coefficient [2]: 11.0 10^4 M^−1 cm^−1
- T1 triplet excited state [2]: 1.55 eV

Molecule: c1cc2cccc3c4cccc5cccc(c(c1)c23)c54 [Perylene, perylene]
- T1 triplet excited state [3]: 1.52 eV
- Photocleavage quantum yield ([4]; 110 mW/cm^2 Hg lamp, >410 nm): 0.093
- Photolytic efficiency (ε × Φ) ([4]; 110 mW/cm^2 Hg lamp, >410 nm): 3627
- Photocleavage quantum yield ([4]; 125 WHg lamp, ≥410 nm): 0.093
- Photolytic efficiency (ε × Φ) ([4]; 125 WHg lamp, ≥410 nm): 3627
- Photocleavage quantum yield ([4]; TTAP, 20 mW/cm^2, λ = 650 nm): 0.093
- Overall photocleavage quantum yield ([5]; TTAP, 20 mW/cm^2, λ = 650 nm): 12400

Molecule: anthracene [reference compound]
- T1 triplet excited state [3]: 1.77 eV

Molecule: O=C(CCCc1ccc(N(CCCl)CCCl)cc1)OCc1ccc2c3cccc4cccc(c5cccc1c52)c43 [compound 19]
- Yield (HPLC yield) ([1]; Compound 19 only, 720 nm LED, 1 h): No reaction
- Yield (HPLC yield) ([1]; Compound 19 only, argon, 720 nm LED, 1 h): No reaction
- Yield (HPLC yield) ([1]; Compound 19 only, argon, red light, 2 h): No reaction
- Yield (HPLC yield) ([1]; Compound 19 only, red light, 2 h): No reaction
- Yield (HPLC yield) ([1]; PdTPBP, air, red light, 2 h): 7
- Yield (HPLC yield) ([1]; PdTPBP, argon, dark, 2 h): No reaction
- Yield (HPLC yield) ([1]; PdTPBP, argon, red light, 1 h): 72.8
- Yield (HPLC yield) ([1]; PdTPBP, argon, red light, 2 h): 67.0
- photolytic yield [1, 8]: 72.8%
- photolytic yield [1, 9]: 30.4%
- Yield (HPLC yield) ([1]; PtTNP, air, 720 nm LED, 1 h): No reaction
- Yield (HPLC yield) ([1]; PtTNP, argon, dark, 1 h): No reaction
- Yield (HPLC yield) ([1]; PtTNP, argon, 720 nm LED, 1 h): 30.4

Molecule: CC(C)(C)OC(=O)NCC(=O)OCc1c2ccccc2cc2ccccc12 [compound 5]
- photolytic yield [1, 10]: 58.4%

Molecule: CC(=O)OCc1ccc2c3cccc4cccc(c5cccc1c52)c43 [compound 8]
- photolytic yield [1]: 70%
- Yield (HPLC) of photolytic reaction ([1]; PdTPBP, air, room light, 60 min): No reaction
- Yield (HPLC) of photolytic reaction ([1]; PdTPBP, argon, room light, 60 min): No reaction
- Yield (HPLC) of photolytic reaction ([1]; PdTPBP, dark, argon, 1 h): No reaction
- photolytic yield [1, 8]: 87% and 87.1%
- Yield (HPLC) of photolytic reaction ([1]; PdTPBP, light, air, 1 h): No reaction
- Yield (HPLC) of photolytic reaction ([1]; PdTPBP, light, argon, 1 h): 87.1%
- photolytic yield [1, 9]: 14.7%
- Yield (HPLC) of photolytic reaction ([1]; PtTNP, dark, argon, 1 h): No reaction
- Yield (HPLC) of photolytic reaction ([1]; PtTNP, light, air, 1 h): No reaction
- Yield (HPLC) of photolytic reaction ([1]; PtTNP, light, argon, 1 h): 14.7%
- Yield (HPLC) of photolytic reaction ([1]; compound only (no PdTPBP), far red light, argon, 1 h): No reaction
- Yield (HPLC) of photolytic reaction ([1]; compound only (no PtTNP), NIR light, argon, 1 h): No reaction
- Yield (HPLC) of photolytic reaction ([1]; compound only, air, blue light (445 nm, 20 mW/cm^2), 60 min): 59%
- Yield (HPLC) of photolytic reaction ([1]; compound only, air, dark, 60 min): No reaction
- Yield (HPLC) of photolytic reaction ([1]; compound only, air, room light, 60 min): No reaction
- quenching of the photoluminescence of PdTPBP ([6]; PdTPBP): obvious quenching effects
- ksv (bimolecular quenching constant) ([6]; PdTPBP as sensitizer): 1.09 × 10^9 g M^−1S^−1
- ksv Stern-Volmer quenching constant ([6]; PdTPBP as sensitizer): 243000 g/M
- quenching of the photoluminescence of PtOEP ([6]; PtOEP): significant quenching
- ksv (bimolecular quenching constant) ([6]; PtOEP as sensitizer): 2.9 × 10^9 j M^−1S^−1
- ksv Stern-Volmer quenching constant ([6]; PtOEP as sensitizer): 262000 J/M
- quenching of the photoluminescence of PtTNP ([6]; PtTNP): quenching effect
- upconversion quantum yield ([7]; paired with PdTPBP): 5.8%
- upconversion quantum yield ([7]; paired with PtOEP): 9.5%
- upconversion quantum yield ([7]; paired with PtTNP): 0.05%
- 2 × T1 − S1 ([2]; PPGs): 0.26 eV
- S1 singlet excited state ([2]; PPGs, from maximum fluorescence emission): 2.78 eV
- λabs maximum absorption wavelength [2]: 440
- λem maximum emission wavelength [2]: 445
- ξ molar extinction coefficient [2]: 4.0 10^4 M^−1 cm^−1
- T1 triplet excited state ([3]; listed as Py): 1.52 ^m eV and 1.52 eV
- increase of ηp (TTAP) over ηp (direct) ([5]; PdTPBP): 282%
- ε2 × Φp: ε (Sen) × Φp (PPGs); ηp (TTAP) ([5]; PdTPBP as sensitizer): 10230 ^g
- ε2 × Φp: ε (Sen) × Φp (PPGs); ηp (TTAP) ([5]; PdTPBP as sensitizer, listed as Py): 10230
- increase of ηp (TTAP) over ηp (direct) ([5]; PtOEP): 179%
- ε2 × Φp: ε (Sen) × Φp (PPGs); ηp (TTAP) ([5]; PtOEP as sensitizer): 6510 ^j
- ε2 × Φp: ε (Sen) × Φp (PPGs); ηp (TTAP) ([5]; PtOEP as sensitizer, listed as Py): 6510
- increase of ηp (TTAP) over ηp (direct) ([5]; PtTNP): 342%
- ε2 × Φp: ε (Sen) × Φp (PPGs); ηp (TTAP) ([5]; PtTNP as photosensitizer): 12400^h
- ε2 × Φp: ε (Sen) × Φp (PPGs); ηp (TTAP) ([5]; PtTNP as photosensitizer, listed as Py): 12400
- ε1 × Φp: ε (PPGs) × Φp (PPGs); ηp (direct) ([5]; direct short wavelength illumination): 3627

Molecule: CCCCNC(=O)OCc1ccc2c3cccc4cccc(c5cccc1c52)c43 [compound 10]
- photolytic yield [1, 8]: 52.4%
- photolytic yield [1, 9]: 29.3%

Molecule: CC(C)COC(=O)OCc1ccc2c3cccc4cccc(c5cccc1c52)c43 [compound 9]
- photolytic yield [1, 8]: 65.3%
- photolytic yield [1, 9]: 27.8%

Molecule: CCC1=C(CC)c2cc3[n-]c(cc4nc(cc5[n-]c(cc1n2)c(CC)c5CC)C(CC)=C4CC)c(CC)c3CC.[Pt+2] [PtOEP, platinum octaethylporphyrin]
- λabs maximum absorption wavelength [2]: 533
- λem maximum emission wavelength [2]: 647
- ξ molar extinction coefficient [2]: 7.0 10^4 M^−1 cm^−1
- T1 triplet excited state [2]: 1.92 eV

Molecule: CC(C)Cc1ccc(C(C)C(=O)OCc2ccc3c4cccc5cccc(c6cccc2c63)c54)cc1 (stereo not drawn) [compound 18]
- photolytic yield [1, 8]: 71.6%
- photolytic yield [1, 9]: 19.4%

Molecule: COc1ccc2c(c1)c(CC(=O)OCc1ccc3c4cccc5cccc(c6cccc1c63)c54)c(C)n2C(=O)c1ccc(Cl)cc1 [compound 17]
- photolytic yield [1, 8]: 51.7%
- photolytic yield [1, 9]: 9.2%

Molecule: CC(C)(C)OC(=O)N[C@@H](CSSC(C)(C)C)C(=O)OCc1ccc2c3cccc4cccc(c5cccc1c52)c43 [compound 14]
- photolytic yield [1, 8]: 81.2%
- photolytic yield [1, 9]: 23.3%

Molecule: O=c1ccc2ccccc2o1 [Coumarin, coumarin]
- T1 triplet excited state [3]: 2.18 eV
- Photocleavage quantum yield [4, 11]: 0.13
- Photolytic efficiency (ε × Φ) [4, 11]: 806
- Photocleavage quantum yield [4, 12]: 0.13
- Overall photocleavage quantum yield; η (upconversion) [5, 12]: <0.02873

Molecule: CC(C)COC(=O)OCc1c2ccccc2cc2ccccc12 [compound 3]
- photolytic yield [1, 10]: 72.3%

Molecule: CC(C)(C)OC(=O)NCC(=O)OCc1ccc2c3cccc4cccc(c5cccc1c52)c43 [compound 12]
- photolytic yield [1, 8]: 89.2%
- photolytic yield [1, 9]: 29.6%
